How the values were obtained:
[1] = system: MYC (pSer62 and total) in MIA PACA-2 (G12C) cells; experiment: Western blot of MYC and pSer62-MYC in MIA PACA-2 cells; format: cell-based; settings: 4 μM Voruciclib
Experimental: (§1) Voruciclib is an oral inhibitor of CDKs 9, 4, 6, and 1 currently being tested in Phase 1B clinical trials for B-cell malignancies and acute myeloid leukemia. Voruciclib inhibition of CDK9 leads to decreased expression of transcriptional targets of RNA Pol II, such as Mcl1 and MYC. To test whether Voruciclib could be effective in cancers driven by dysregulated KRAS-MYC signaling, ˜20 cancer cell lines with KRAS mutations (G12A, G12C, G12D, G12S, G12V, G13C, G13D, Q61H) were treated in preclinical studies with Voruciclib. MTS and Cell Titer Glo assays were used to monitor growth in vitro. […] To investigate MYC protein stability, MIA PACA-2 (G12C) cells were treated with 4 μM Voruciclib for 5-240 min, followed by SDS-PAGE and Western Blotting analysis with α-MYC and α-pSer62-MYC antibodies. […] A 60% decrease in pSer62 was observed after 5 min that reached 80% by 60 min. […] The ability of Voruciclib to inhibit tumor growth in vivo was also tested in murine xenograft models. KRAS mutant human cancer cells HCT-116 (CRC, KRAS G13D), SW-480 (CRC, KRAS G12V), and H-460 (NSCLC, KRAS Q61H) were injected subcutaneously into SCID mice. Once tumors reached 5-10 mm in diameter, Voruciclib or vehicle were administered orally at 50, 100, or 200 mg/kg OD for 11-14 days. Tumors were measured every 2-3 days, and growth inhibition relative to control was calculated.
FIG. 32—Voruciclib causes rapid inhibition MYC pSer62 phosphorylation and reduces MYC protein levels. Immunoblot analyses of c-MYC, phospho-c-MYC (Ser62), and actin in MIA Paca-2 KRAS G12C mutant PDAC cells. (FIG. 32A) Cells were treated with vehicle control, voruciclib (VOR, 4 μM), or the AZD4573 (AZD, a CDK9 inhibitor, 400 nM) for the indicated times. (FIG. 32B) Cells were treated with various concentrations of voruciclib or AZD4573 for the indicated time. Relative densitometry values are indicated.

H-460 (NSCLC, KRAS Q61H) = experiment: Murine xenograft tumor growth inhibition, H-460; format: in vivo, SCID mice; settings: H-460 xenograft; orally 50, 100, or 200 mg/kg OD for 11-14 days; all doses
Experimental: as §1, with “calculated. […]” for “calculated.”

MIA Paca-2 cells = experiment: Voruciclib-sensitive phosphoproteome (TMT, LC-MS/MS); format: cell-based; settings: voruciclib 4 μM over time
Experimental: Cells were treated with voruciclib (4 μM) over time. (FIG. 31A) Summary of peptide quantification after TMT labelling and analysis by LC-MS/MS. (FIG. 31B) Volcano plots of phosphosites (log 2 fold change vs −log 10 p-value).
To define the CDK9-dependent phosphoproteome, cells are treated for a short time period with VOR followed by harvesting of the cells, IMAC enrichment, 16-plex isobaric tagging, and analysis by LC/MS/MS. A time course or different doses or drug combinations for the conditions can be performed. This experiment provides insight into novel CDK9 substrates and inroads into possible therapeutic areas for CDK9 inhibition by VOR.

MIA PaCa-2 xenografts = experiment: CIVO intratumoral microinjection, MIA PaCa-2 xenografts; format: in vivo; settings: MIA PaCa-2 PDAC tumors
Excerpt: Replicate Tumors: n≥5. Time Point: 24 hr. Cell Line; MIA PaCa-2. Biomarker: CC3, H&E.
The original paraffin embedded fixed tumor blocks were sliced and stained for MCL-1 and total MYC using antibodies specific to each. The MYC staining is in red. The MCL-1 staining is in yellow. The nuclei are stained in blue. For MYC and MCL-1, a decrease in the signal indicates an on-target effect of VOR.

NCI-H358 cells = experiment: 2D culture dose response; format: cell-based; settings: Homo sapiens
Solid Tumors [2] = experiment: Monotherapy Phase 1 study in solid tumors, 2 weeks on/1 week off schedule; format: in vivo, human
Solid Tumors [3] = experiment: Monotherapy Phase 1 study in solid tumors, daily continuously schedule; format: in vivo, human
[4] = system: Relapsed/Refractory B-cell malignancies; Relapsed/Refractory AML; experiment: Phase 1 study in R/R B-cell malignancies and AML; format: in vivo, human
Experimental: Study population: Relapsed/Refractory B-cell malignancies; Relapsed/Refractory AML; Dose escalation with standard 3+3 design.
Endpoints: Safety and tolerability, Pharmacokinetics, Biologic correlative studies (BH3 profiling, MCL-1 expression, molecular mutations analysis), Response rates.
Voruciclib single agent dose escalation: 50 mg>100 mg>150 mg>200 mg.
Differentiation syndrome seen in 5 pts (50%) (Increased WBC without increased in blasts, bone pain, pulmonary symptoms; Response to corticosteroids).

[5] = system: Venetoclax Sensitive and Resistant Cell Lines; experiment: Voruciclib + venetoclax synergy in venetoclax sensitive and resistant cell lines; format: cell-based
Excerpt: FIG. 4A: Ven Sensitive; FIG. 4B: Ven Resistant.

[6] = 2 weeks on/i week off schedule, 75 to 850 mg, 29 pts
[7] = Phase 1 monotherapy studies in solid tumors (both schedules)
[8] = Daily continuously schedule, 75 to 500 mg, 39 pts

CN1CC[C@@H](c2c(O)cc(O)c3c(=O)cc(-c4ccc(C(F)(F)F)cc4Cl)oc23)[C@@H]1CO [Voruciclib, (+)-trans-2-(2-Chloro-4-trifluoromethylphenyl)-5,7-dihydroxy-8-(2-hydroxymethyl-1-methylpyrrolidin-3-yl)-chromen-4-one]
decrease in total MYC protein ([1]; 5 or 15 min): no decrease in total MYC protein
reduction in total MYC ([1]; 60 min): 10%
reduction in total MYC ([1]; 240 min): 50%
decrease in pSer62 (MYC) ([1]; after 5 min): 60%
decrease in pSer62 (MYC) ([1]; by 60 min): 80%
tumor growth inhibition relative to control (H-460 (NSCLC, KRAS Q61H)): > 50%
phosphoproteome change (MIA Paca-2 cells): rapid downregulation of phosphoproteins controlling transcription of MYC
MYC positive cells (MIA PaCa-2 xenografts): decrease in MYC
IC50 (NCI-H358 cells): 600 nM
best response (Solid Tumors [2]; [6]): 1 PR and 8 SD lasting 2 to 6 months
disease control rate (Solid Tumors [2]; [6]): 41%
most common AEs (Solid Tumors [2]; [7]): most common AEs involved GI tract
myelosuppression (Solid Tumors [2]; [7]): no evidence of myelosuppression
best response (Solid Tumors [3]; [8]): 12 SD lasting a median of 15 weeks
disease control rate (Solid Tumors [3]; [8]): 31%
patients with decreased c-MYC expression (Solid Tumors [3]; Phase 1 daily dosing study, 17/25 patients tested): 68%
GI toxicity or neutropenia ([4]; 24 pts in 3 dose levels, 10 AML and 14 B-cell malignancies): No GI toxicity or neutropenia at doses studied
patients with differentiation syndrome ([4]; AML): 50%
synergy with Venetoclax [5]: Synergizes with Venetoclax

Reference: US20240016781A1, “TREATMENT OF KRAS MUTANT CANCERS” (MEI Pharma, Inc., priority 2020, published 2024)
